Data published in the NIST ThermoML archive (doi:10.1016/j.jct.2004.12.016).
Where “and” joins values, the source holds several entries; their conditions need not be identical. Equal values may be shown once. ± gives the expanded uncertainty stated by the source.

Details: for vapor or sublimation pressure: Closed cell (Static) method; for mass density: Fluid (supercritical or subcritical phases), isochoric method

N [ammonia]
Details	Critical density [kg/m3]	Critical temperature [K]	mass density	vapor or sublimation pressure
310 K, Liquid	–	–	–	1423.6 ± 2.9 kPa [middle of 6 runs]
350 K, Liquid	–	–	–	3867 ± 6.3 kPa [middle of 5 runs]
400 K, Liquid	–	–	–	10303 ± 16 kPa [middle of 4 runs]
404.5 K, Liquid	–	–	–	11148 ± 0.033 kPa and 11151 ± 0.033 kPa and 11150 ± 0.033 kPa
405.5 K, Liquid	–	–	–	11343 ± 0.033 kPa
405.53 K, Liquid	–	–	–	11351 ± 0.033 kPa
405.54 K, Liquid	–	–	–	11352 ± 0.033 kPa and 11354 ± 0.033 kPa and 11353 ± 0.033 kPa
405.55 K, 11351 kPa	–	–	235.01 ± 2 kg/m3	–
405.55 K, 11355 kPa	–	–	249.99 ± 2 kg/m3	–
405.55 K, 11359 kPa	–	–	255.19 ± 2 kg/m3	–
405.55 K, Liquid	–	–	–	11356 ± 0.033 kPa [middle of 5 runs]
405.56 K, 11355 kPa	–	–	242.91 ± 2 kg/m3 and 244.06 ± 2 kg/m3	–
405.56 K, 11356 kPa	–	–	241.93 ± 2 kg/m3 and 242.97 ± 2 kg/m3	–
405.56 K, 11357 kPa	–	–	244.01 ± 2 kg/m3	–
405.56 K, 11358 kPa	–	–	244.95 ± 2 kg/m3 and 243.49 ± 2 kg/m3	–
405.56 K, 11359 kPa	–	–	244 ± 2 kg/m3	–
405.57 K, 11358 kPa	–	–	242.95 ± 2 kg/m3	–
405.57 K, 11360 kPa	–	–	241.94 ± 2 kg/m3 and 244.1 ± 2 kg/m3 and 245.04 ± 2 kg/m3	–
405.57 K, 11361 kPa	–	–	243.96 ± 2 kg/m3	–
405.57 K, 11370 kPa	–	–	242.83 ± 2 kg/m3	–
405.58 K, 11360 kPa	–	–	243.01 ± 2 kg/m3	–
405.58 K, 11362 kPa	–	–	242.02 ± 2 kg/m3 and 244.08 ± 2 kg/m3 and 244.99 ± 2 kg/m3	–
405.6 K, 11355 kPa	–	–	224.92 ± 2 kg/m3	–
405.6 K, 11356 kPa	–	–	229.9 ± 2 kg/m3	–
405.6 K, 11362 kPa	–	–	235.14 ± 2 kg/m3	–
405.6 K, 11363 kPa	–	–	239.9 ± 2 kg/m3	–
405.6 K, 11367 kPa	–	–	245.12 ± 2 kg/m3	–
Liquid, Visual observation in an unstirred cell	–	405.56 ± 0.06	–	–
Liquid, metal-bellows volumometer	244 ± 2	–	–	–
